Where two headings read alike, the source gives them in different places.
Tests used:
[1] = molecular target: T1, horseradish peroxidase (HRP) tagged delF508-CFTR (Homo sapiens, UniProt P13569, DEL508-508); experiment: Measurement of delF508-CFTR-HRP surface expression in CFBE41o- cells; assay type: cell-based; conditions: for Emax: read-out: DelF508-CFTR-HRP Amax %;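 as to DelF508-CFTR-HRP Amax %: percent efficacy relative to reference corrector lumacaftor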
T1 construct: expressed in transfected cells
How it was run: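 Surface-trafficked delF508-CFTR detected via extracellular HRP tag, read as luminescence from a membrane-impermeant substrate in CFBE41o- cells. Cells pre-induced 48h with 500 ng/mL doxycycline, then exposed 24h at 37° C to a 10-point, 3-fold dilution series from 10 μM (DMSO ≤0.5%). Triplicate dose-responses fitted logistically for EC50 after per-plate normalization; fold change versus reference compound.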

[2] = molecular target: T2, delF508-CFTR (Homo sapiens, UniProt P13569, DEL508-508); experiment: Measurement of delF508-CFTR functional activity in primary human bronchial epithelial cells (HBECs) using Multi-Transepithelial Clamp Circuit (MTECC-24) assay; assay type: cell-based; conditions: primary CF HBECs; for MTECC24 CFHBEC- Amax %: test compound added 24h before assay plus potentiator, relative to reference combination (2 μM corrector + 0.5 μM potentiator); for EC50: test compound added 24h before assay, in the presence of potentiator, mean of at least two replicates, read-out: MTECC24 CFHBEC- EC50
T2 construct: functional activity of the CFTR channel (Chloride ion transport) in patient derived primary human bronchial epithelial cells; host or cells: patient-derived primary human bronchial epithelial cells (delF508-CFTR)
How it was run: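 Compound tested as 10-point, 1-in-3 concentration response (0.1% or 0.2% DMSO), 24 h basolateral pre-incubation, then re-added to both sides. MTECC-24 measured Ieq in ALI-differentiated primary delF508 bronchial cells after amiloride, forskolin activation, potentiator and INH-172 block; data normalized to DMSO baseline, EC50 fitted.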

[3] = delF508-CFTR-HRP surface expression, CFBE41o- cells
[4] = delF508-CFTR-HRP surface expression, CFBE41o- cells, read-out: DelF508-CFTR-HRP EC50

T1 sequence (P13569 with tags, fused parts or gaps DEL508-508): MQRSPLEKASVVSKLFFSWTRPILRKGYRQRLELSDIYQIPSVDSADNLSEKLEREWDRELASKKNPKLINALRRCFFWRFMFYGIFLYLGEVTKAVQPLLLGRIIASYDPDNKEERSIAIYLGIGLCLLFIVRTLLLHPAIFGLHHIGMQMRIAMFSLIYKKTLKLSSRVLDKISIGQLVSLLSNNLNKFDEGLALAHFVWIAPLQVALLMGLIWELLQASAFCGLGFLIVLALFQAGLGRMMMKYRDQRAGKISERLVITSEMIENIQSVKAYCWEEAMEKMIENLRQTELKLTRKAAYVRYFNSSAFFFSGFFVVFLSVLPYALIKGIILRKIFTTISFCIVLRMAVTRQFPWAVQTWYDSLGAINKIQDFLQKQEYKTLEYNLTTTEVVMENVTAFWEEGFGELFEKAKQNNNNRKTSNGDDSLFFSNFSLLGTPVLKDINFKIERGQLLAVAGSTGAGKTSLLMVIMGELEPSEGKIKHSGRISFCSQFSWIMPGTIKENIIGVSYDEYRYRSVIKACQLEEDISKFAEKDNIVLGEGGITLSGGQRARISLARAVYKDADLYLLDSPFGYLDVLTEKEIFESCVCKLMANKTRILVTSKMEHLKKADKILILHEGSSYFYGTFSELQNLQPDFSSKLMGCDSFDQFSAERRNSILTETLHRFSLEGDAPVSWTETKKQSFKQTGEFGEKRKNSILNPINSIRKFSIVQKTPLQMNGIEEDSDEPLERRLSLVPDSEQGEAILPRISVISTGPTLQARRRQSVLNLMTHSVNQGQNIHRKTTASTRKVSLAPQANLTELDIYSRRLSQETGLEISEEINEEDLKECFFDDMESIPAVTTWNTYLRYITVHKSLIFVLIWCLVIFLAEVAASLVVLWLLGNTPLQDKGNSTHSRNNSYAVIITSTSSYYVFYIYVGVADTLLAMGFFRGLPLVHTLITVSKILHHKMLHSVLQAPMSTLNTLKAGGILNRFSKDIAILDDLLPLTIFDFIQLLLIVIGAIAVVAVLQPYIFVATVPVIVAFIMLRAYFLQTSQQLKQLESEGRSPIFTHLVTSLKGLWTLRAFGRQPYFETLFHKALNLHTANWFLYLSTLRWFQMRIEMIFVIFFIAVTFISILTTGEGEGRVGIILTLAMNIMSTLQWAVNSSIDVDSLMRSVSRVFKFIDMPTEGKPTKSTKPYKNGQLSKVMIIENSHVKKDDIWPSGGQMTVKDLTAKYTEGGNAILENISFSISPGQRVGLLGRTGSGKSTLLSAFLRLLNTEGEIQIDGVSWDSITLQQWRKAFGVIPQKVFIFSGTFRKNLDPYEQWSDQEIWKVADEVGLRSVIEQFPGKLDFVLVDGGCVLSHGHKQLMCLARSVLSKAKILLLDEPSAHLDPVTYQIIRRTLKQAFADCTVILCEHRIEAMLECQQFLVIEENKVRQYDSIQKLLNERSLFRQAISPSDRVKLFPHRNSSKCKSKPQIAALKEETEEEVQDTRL
T2 sequence (P13569 with tags, fused parts or gaps DEL508-508): as above

Row | SMILES | Emax [1, 3] [%] | EC50 [1, 4] [nM] | MTECC24 CFHBEC- Amax % [2] [%] | EC50 [2] [nM] | EC50 [1] [nM] | Emax ([1]; CFBE41o-) [%] | DelF508-CFTR-HRP Amax % [1, 3] [%]
1 | Cc1c(F)cccc1-c1nc(NS(=O)(=O)c2ccnc(N3CC(O)C3)c2)ccc1Cl [Example 323, N-(5-chloro-6-(3-fluoro-2-methylphenyl)pyridin-2-yl)-2-(3-hydroxyazetidin-1-yl)pyridine-4-sulfonamide] | 252 | 2770 | 67.7 | 147 |  |  | 
2 | Cc1ccc(F)cc1-c1nc(NS(=O)(=O)c2ccnc(N3CC(O)C3)c2)ccc1C(F)(F)F [Example 324, N-(6-(5-fluoro-2-methylphenyl)-5-(trifluoromethyl)pyridin-2-yl)-2-(3-hydroxyazetidin-1-yl)pyridine-4-sulfonamide] | 402 | 2640 | 49.4 | 47.9 |  |  | 
3 | O=S(=O)(Nc1ccc(C(F)(F)F)c(-c2ccccc2C(F)(F)F)n1)c1ccnc(N2CC(O)C2)c1 [Example 325, 2-(3-hydroxyazetidin-1-yl)-N-(5-(trifluoromethyl)-6-(2-(trifluoromethyl)phenyl)pyridin-2-yl)pyridine-4-sulfonamide] | 257 | 2400 | 60.1 | 15.4 |  |  | 
4 | Cc1ccc(F)cc1-c1nc(NS(=O)(=O)c2ccnc(N3CCNCC3)c2)ccc1C(F)(F)F [Example 326, N-(6-(5-fluoro-2-methylphenyl)-5-(trifluoromethyl)pyridin-2-yl)-2-(piperazin-1-yl)pyridine-4-sulfonamide] | 103 | 3810 | 50.5 | 203 |  |  | 
5 | Cc1ccccc1-c1nc(NS(=O)(=O)c2cccc(N3CCC[C@@H](C(=O)O)C3)n2)ccc1C(F)(F)F [Example 332, (3R)-1-(6-{[6-(2-methylphenyl)-5-(trifluoromethyl)pyridin-2-yl]sulfamoyl}pyridin-2-yl)piperidine-3-carboxylic Acid] | 521 | 1110 | 84.0 | 4.75 |  |  | 
6 | Cc1ccccc1-c1nc(NS(=O)(=O)c2cccc(N3CCC[C@H](C(=O)O)C3)n2)ccc1C(F)(F)F [Example 333, (3S)-1-(6-{[6-(2-methylphenyl)-5-(trifluoromethyl)pyridin-2-yl]sulfamoyl}pyridin-2-yl)piperidine-3-carboxylic Acid] | 428 | 1950 | 47.6 | 7.9 |  |  | 
7 | Cc1ccccc1-c1nc(NS(=O)(=O)c2cccc(N3CCCC(C)(C(=O)O)C3)n2)ccc1C(F)(F)F (stereo not shown) [Example 337, 3-methyl-1-(6-{[6-(2-methylphenyl)-5-(trifluoromethyl)pyridin-2-yl]sulfamoyl}pyridin-2-yl)piperidine-3-carboxylic Acid] |  | 2250 | 51.5 | 2.72 |  |  | 
8 | Cc1ccccc1-c1nc(NS(=O)(=O)c2cccc(OC3CCC(C(=O)O)CC3)n2)ccc1C(F)(F)F (stereo not shown) [Example 342, 4-((6-(N-(6-(o-tolyl)-5-(trifluoromethyl)pyridin-2-yl)sulfamoyl)pyridin-2-yl)oxy)cyclohexanecarboxylic Acid] | 266 | 1900 | 85.8 | 80.2 |  |  | 
9 | CC1(C(=O)O)CCN(c2cccc(S(=O)(=O)Nc3ccc(C(F)(F)F)c(-c4ccccc4N4CCOCC4)n3)n2)CC1 [Example 343, 4-methyl-1-(6-(N-(6-(2-morpholinophenyl)-5-(trifluoromethyl)pyridin-2-yl)sulfamoyl)pyridin-2-yl)piperidine-4-carboxylic Acid] | 197 | 2150 | 65.3 | 86.1 |  |  | 
10 | Cc1ccccc1-c1nc(NS(=O)(=O)c2cccc(N3CCC(C(=O)O)CC3)n2)ccc1C(F)(F)F [Example 344, 1-(6-{[6-(2-methylphenyl)-5-(trifluoromethyl)pyridin-2-yl]sulfamoyl}pyridin-2-yl)piperidine-4-carboxylic Acid] | 132 | 2810 | 46.7 | 22.8 |  |  | 
11 | Cc1ccccc1-c1nc(NS(=O)(=O)c2cccc(N3C4CCCC3CC(C(=O)O)C4)n2)ccc1C(F)(F)F (stereo not shown) [Example 345, 9-(6-{[6-(2-methylphenyl)-5-(trifluoromethyl)pyridin-2-yl]sulfamoyl}pyridin-2-yl)-9-azabicyclo[3.3.1]nonane-3-carboxylic Acid] |  |  | 90.4 | 41.5 | 1330 | 557 | 
12 | CCCC1(C(=O)O)CCN(c2cccc(S(=O)(=O)Nc3ccc(C(F)(F)F)c(-c4ccccc4CC)n3)n2)CC1 [Example 351, 1-(6-{[6-(2-ethylphenyl)-5-(trifluoromethyl)pyridin-2-yl]sulfamoyl}pyridin-2-yl)-4-propylpiperidine-4-carboxylic Acid] | 492 | 870 | 99.7 | 107 |  |  | 
13 | CCCC1(C(=O)O)CCCN(c2cccc(S(=O)(=O)Nc3ccc(C(F)(F)F)c(-c4ccccc4CC)n3)n2)C1 (stereo not shown) [Example 352, 1-(6-{[6-(2-ethylphenyl)-5-(trifluoromethyl)pyridin-2-yl]sulfamoyl}pyridin-2-yl)-3-propylpiperidine-3-carboxylic Acid] | 714 | 699 | 82.2 | 0.808 |  |  | 
14 | Cc1ccccc1-c1nc(NS(=O)(=O)c2cccc(N[C@H]3C[C@@](C)(C(=O)O)C3)n2)ccc1C(F)(F)F [Example 356, (1s,3s)-1-methyl-3-((6-(N-(6-(o-tolyl)-5-(trifluoromethyl)pyridin-2-yl)sulfamoyl)pyridin-2-yl)amino)cyclobutanecarboxylic Acid] |  | 1510 | 70.1 | 7.49 |  |  | 553.8
15 | Cc1ccc(F)cc1-c1nc(NS(=O)(=O)c2cccc(N3CCC[C@@H](C(=O)O)C3)n2)ccc1C(F)(F)F [Example 357, (3R)-1-(6-{[6-(5-fluoro-2-methylphenyl)-5-(trifluoromethyl)pyridin-2-yl]sulfamoyl}pyridin-2-yl)piperidine-3-carboxylic Acid] |  | 2060 | 70.6 | 38.5 |  |  | 
16 | Cc1c(F)cccc1-c1nc(NS(=O)(=O)c2cccc(N3CCC[C@@H](C(=O)O)C3)n2)ccc1C(F)(F)F [Example 358, (3R)-1-(6-{[6-(3-fluoro-2-methylphenyl)-5-(trifluoromethyl)pyridin-2-yl]sulfamoyl}pyridin-2-yl)piperidine-3-carboxylic Acid] | 869 | 2320 | 57.9 | 4.02 |  |  | 
17 | Cc1ccc(F)cc1-c1nc(NS(=O)(=O)c2cccc(N3CCC[C@H](C(=O)O)C3)n2)ccc1C(F)(F)F [Example 359, (3S)-1-(6-{[6-(5-fluoro-2-methylphenyl)-5-(trifluoromethyl)pyridin-2-yl]sulfamoyl}pyridin-2-yl)piperidine-3-carboxylic Acid] | 648 | 1960 | 86.7 | 2.04 |  |  | 
18 | Cc1c(F)cccc1-c1nc(NS(=O)(=O)c2cccc(N3CCC[C@H](C(=O)O)C3)n2)ccc1C(F)(F)F [Example 360, (3S)-1-(6-{[6-(3-fluoro-2-methylphenyl)-5-(trifluoromethyl)pyridin-2-yl]sulfamoyl}pyridin-2-yl)piperidine-3-carboxylic Acid] | 546 | 2110 | 57.5 | 47.4 |  |  | 
19 | Cc1ccc(F)cc1-c1nc(NS(=O)(=O)c2cccc(N3CCCC(C)(C(=O)O)C3)n2)ccc1C(F)(F)F (stereo not shown) [Example 361, 1-(6-{[6-(5-fluoro-2-methylphenyl)-5-(trifluoromethyl)pyridin-2-yl]sulfamoyl}pyridin-2-yl)-3-methylpiperidine-3-carboxylic Acid] |  | 2080 | 51.9 | 11.3 |  |  | 
20 | Cc1c(F)cccc1-c1nc(NS(=O)(=O)c2cccc(N3CCCC(C)(C(=O)O)C3)n2)ccc1C(F)(F)F (stereo not shown) [Example 362, 1-(6-{[6-(3-fluoro-2-methylphenyl)-5-(trifluoromethyl)pyridin-2-yl]sulfamoyl}pyridin-2-yl)-3-methylpiperidine-3-carboxylic Acid] |  | 2000 | 77.9 | 0.533 |  |  | 
21 | O=C(O)[C@@H]1CCCN(c2cccc(S(=O)(=O)Nc3ccc(C(F)(F)F)c(-c4ccccc4C4CCC4)n3)n2)C1 [Example 366, (R)-1-(6-(N-(6-(2-cyclobutylphenyl)-5-(trifluoromethyl)pyridin-2-yl)sulfamoyl)pyridin-2-yl)piperidine-3-carboxylic Acid] |  | 1340 | 66.9 | 0.797 |  |  | 

From patent US11066369B2, “N-(pyridin-2-yl)pyridine-sulfonamide derivatives and their use in the treatment of disease” (Novartis AG, priority 2016, dated 2021)
